In US8222296B2, “Conjugates comprising a GABA- or glycine compound, pharmaceutical compositions and combinations thereof and their use in treating CNS disorders” (Ramot at Tel-Aviv University Ltd., priority 2006, dated 2012):
Structures can show the parent of a compound that is named as a salt.

What was measured:
[1] = Water content (Karl-Fisher titration) after sitting uncapped on the bench overnight; assay type: physicochemical; conditions: 0.15% vs. 0.16%
Description: Water content was measured using Karl-fisher titration.

[2] = Stability of BIL-1022 in water and methanol; assay type: physicochemical; conditions: low pH (3-5), room temperature (20-25° C.)
Description: The stability of BIL-1022 was briefly studied. BIL-1022 is stable in water and methanol at low pH (3-5) at room temperature (20-25° C.).

SMILES: CC(=O)Nc1ccc(OC(=O)CCCN)cc1 [BIL-1022, 4-acetamidophenyl 4-aminobutanoate hydrochloride]
- water content of the product upon sitting in vial (uncapped) on the bench overnight [1]: remained substantially unchanged
- stability in water and methanol [2]: stable
